Results reported in patent publication US20050221411A1, “Interaction of NMDA receptor with the protein tyrosine phosphatase step in psychotic disorders” (AGY Therapeutics, Inc., priority 2003, published 2005).
Entries after “also recorded” stand apart in the source; their conditions may differ.

Key:
EGF receptors = assay: Surface expression of EGF receptors in neurons (biotinylation, Western blot); type: cell-based; settings: versus RNAi-Scrambled
Excerpt: (§1) Interfering RNA molecules were introduced into neurons by AMAXA nucleofection. To specifically knockdown STEP the oligo used had the sequence 5′-[…]-3′, a control siRNA that is predicted not to knock down levels of any gene products (sequence 5′-[…]-3′ was also used (Dharmacon, Lafayette, Colo.). Interfering RNA molecules were introduced into neurons using the AMAXA nucleofection technique (AMAXA, Gaithersburg, Md.) using the manufacturers protocol. Neurons were allowed to grow in culture for 3-4 days prior to experimental procedures.
(§2) Neurons were washed with ice cold PBS. Sulfo-NHS-LC-Biotin (Pierce Biotechnology, Rockford, Ill.) was dissolved at 1.5 mg/ml in ice cold PBS and incubated with the cells for 1 hour at […]. Excess biotin was washed off the cells with ice cold PBS and cells lysed and harvested as above. […] of protein lysate was incubated with 100 μl of neutravadin agarose slurry (Pierce Biotechnology) overnight at […]. The complexes were washed thoroughly and proteins eluted from the beads by resuspension in SDS loading buffer and boiling for 10 mins. Proteins were loaded on 8% Tris-gicine gels and separated by SDS-PAGE. Western blotting was performed by standard means using the indicated antibodies.

[1] = system: GluR1 subunit of AMPA receptors; assay: Surface expression of AMPA receptor GluR1 subunit in neurons (biotinylation, Western blot); type: cell-based; settings: versus RNAi-Scrambled
Excerpt: as §1, §2

[2] = system: NMDA receptors (NR1, NR2A, NR2B); assay: Surface expression of NMDA receptor subunits in neurons (biotinylation, Western blot); type: cell-based
Excerpt: as §1, §2

STEP61 = assay: Knockdown of STEP protein by RNAi in cultured cortical neurons (Western blot); type: cell-based, rat
Procedure: Single stranded interfering RNA molecules (RNAi) were designed to be complementary to the sequence of STEP by standard means. The sequence used was 5′ AAACAUGCGAACAGUAUCAGU 3′. A standard scrambled RNA molecule of sequence 5′-CAG TCG CGT TTG CGA CTG G-3′ was used as a control. Dissociated cortical neurons were prepared from E18 rat embryos by standard protocols. The dissociated neurons were mixed with 90 ul of rat Nucleofector solution to give a final concentration of 4.8×10^6 cells/90 ul. The cells were mixed with 20 ug of RNAi and transferred to an electroporation cuvette. Using an AMAXA Nucleofector cells were electroporated using standard settings. Cells were transferred from the electroporation cuvette to poly-D-lysine coated 96 well plates for calcium flux assays or 6 well plates for Western blotting procedures and grown in standard neuronal media at 37° C. with 5% CO2 for 4 days.
Knockdown of endogenous STEP protein levels was visualized by Western blotting. Four days after electroporation cells were harvested and lysed with lysis buffer (150 mM NaCl, 50 mM Tris pH 7.6, 1% triton, in the presence of a protease inhibitor cocktail and 1 mM sodium orthovanadate) on ice. […] Levels of STEP protein were determined by Western blotting using anti-STEP antibodies (FIG. 6).

GABAA receptor b subunit = assay: Surface expression of GABAA receptor b subunit in neurons (biotinylation, Western blot); type: cell-based; settings: versus RNAi-Scrambled
Excerpt: as §1, §2

NMDA receptors = assay: NMDA mediated calcium influx in cultured cortical neurons after RNAi (FLEXstation); type: cell-based, rat; settings: 1 μM NMDA, four days after transfection, versus scrambled RNA molecule
[3] = system: NMDA receptor / ERK phosphorylation; assay: NMDAR mediated ERK phosphorylation in cultured cortical neurons (Western blot); type: cell-based
Procedure: […] SDS-PAGE was performed and western blotting used to detect ERK phosphorylation levels.
ERK phosphorylation in cultured cortical neurons (10-13 division) can be elicited by activation of NMDARs.

For “5′ AAACAUGCGAACAGUAUCAGU 3′ (guide AAACAUGCGAACAGUAUCAGU; siRNA; RNA, backbone and methylation of C not given here; single-stranded interfering RNA) [RNAi-STEP]”, the “surface levels of EGF receptors” value (EGF receptors) was “unaffected”, the “surface levels of the GluR1 subunit of AMPA receptors” value [1] was “unaffected” and the “total levels of each subunit” value ([2]; RNAi-STEP or RNAi-Scrambled) was “the same”. The “levels of surface NR1” value ([2]; versus RNAi-Scrambled) was “increased”, the “levels of surface NR2A” value ([2]; versus RNAi-Scrambled) was “increased” and the “levels of surface NR2B” value ([2]; versus RNAi-Scrambled) was “increased”. The “levels of STEP61 protein” value (STEP61; cultured cortical neurons, four days after transfection, versus scrambled RNA molecule) was “lower levels of STEP61 protein”, the “STEP levels in the total protein lysate” value (STEP61; neurons, AMAXA nucleofection, relative to RNAi-Scrambled) was “knocked down” and the “surface levels of the GABAA receptor b subunit” value (GABAA receptor b subunit) was “unaffected”. For the same compound, the “Ca influx elicited by application of NMDA” value (NMDA receptors) was “increase in NMDA receptor mediated Ca influx” and the “Ca influx elicited by application of NMDA” value (NMDA receptors; listed as inhibitory RNA to STEP) was “larger NMDA response”.
`N[C@H](CCCP(=O)(O)O)C(=O)O` [D-APV, D-2-amino-5-phosphonopentanoic acid] was tested, and the “NMDA stimulated ERK phosphorylation” value ([3]; D-APV 200 μM, stimulation with 100 μM NMDA for 5 minutes) was “blocked; also recorded: inhibits”.
In the case of `CN[C@H](CC(=O)O)C(=O)O` [NMDA, N-methyl-D-aspartate], the ERK phosphorylation levels ([3]; 100 μM NMDA for 5 minutes, cultured cortical neurons (10-13 division)) is reported as “significant ERK phosphorylation; also recorded: significantly increased”.
